Measurements published in patent US4027039A (priority 1975, dated 1977).
“And” between values parts separate entries of the source, which are not always exact repeats. Equal values may be shown once. Read-outs that look alike come from different tables or passages of the source.

How the values were obtained:
Columbia SK Polio virus = format: in vivo, mouse
Vaccinia virus = format: in vivo, rabbit; conditions: rabbit, in vivo; thiosemicarbazone
Vaccinia IHD virus = format: in vivo, mouse
Influenza PR 8 virus [1] = assay: Influenza PR 8 in mice, intravenous (Table 31); format: in vivo, mouse; conditions: total dose .2 μg
Influenza PR 8 virus [2] = assay: Influenza PR 8 in mice, drug in drinking water (Table 34); format: in vivo, mouse
Herpes virus [3] = test system: Herpes virus
Influenza PR 8 virus [4] = assay: Influenza PR 8 in mice, oral; schedule by table; late read day 6 (Table 37), 7 (33, 36), 8 (32, 35, 47), 10 (38); control fraction 18/20 (Table 32), 19/20 (Table 35), else 100%; format: in vivo, mouse
viral infections = assay: Antiviral screening in animals, general statements; conditions: mouse, in vivo
Herpes virus [5] = assay: Herpes virus in chicken eggs, single dose 24 hours pre-infection; format: in vivo, chick embryo
Influenza PR 8 virus [6] = assay: Influenza PR 8 in mice, subcutaneous; late read day 6 (Table 37), 8 (Table 47); format: in vivo, mouse
[7] = total dose .000005 μg, thiosemicarbazone
[8] = total dose .00005 μg, listed as 2-butanone thiosemicarbazone
[9] = total dose .00005 μg, thiosemicarbazone

## CCC(C)=NNC(N)=S [2-Butanone, thiosemicarbazone, 2-butanone, thiosemicarbazone]
Columbia SK Polio virus; total dose 3 ng
  No. animals surviving after 5 days: 7
  Survivors: 0
Columbia SK Polio virus; total dose 30 ng
  No. animals surviving after 5 days: 8
  Survivors: 0
Columbia SK Polio virus; total dose 300 ng
  No. animals surviving after 5 days: 6
  Survivors: 1
Vaccinia virus
  effect on pox formation: variable
Vaccinia IHD virus; 10 ng, day 5
  Statistical Significance of Tail Lesions: < .05
Vaccinia IHD virus; 10 ng, day 6
  Statistical Significance of Tail Lesions: < .01
Vaccinia IHD virus; 10 ng, day 7
  Statistical Significance of Tail Lesions: < .05
Vaccinia IHD virus; 10 ng, day 10
  Statistical Significance of Tail Lesions: < .01
Vaccinia IHD virus; 10 ng, day 11
  Statistical Significance of Tail Lesions: < .01
Vaccinia IHD virus; 10 ng, day 12
  Statistical Significance of Tail Lesions: < .01
Vaccinia IHD virus; 10 ng, day 14
  Statistical Significance of Tail Lesions: < .01
Vaccinia IHD virus; 10 ng, day 17
  Statistical Significance of Tail Lesions: < .01
Vaccinia IHD virus; 10 ng, day 21
  Statistical Significance of Tail Lesions: < .01
Vaccinia IHD virus; 1 μg, day 5
  Statistical Significance of Tail Lesions: < .01
Vaccinia IHD virus; 1 μg, day 6
  Statistical Significance of Tail Lesions: < .01
Vaccinia IHD virus; 1 μg, day 7
  Statistical Significance of Tail Lesions: < .05
Vaccinia IHD virus; 1 μg, day 8
  Statistical Significance of Tail Lesions: < .01
Vaccinia IHD virus; 1 μg, day 10
  Statistical Significance of Tail Lesions: < .01
Vaccinia IHD virus; 1 μg, day 11
  Statistical Significance of Tail Lesions: < .01
Vaccinia IHD virus; 1 μg, day 12
  Statistical Significance of Tail Lesions: < .01
Vaccinia IHD virus; 1 μg, day 14
  Statistical Significance of Tail Lesions: < .01
Vaccinia IHD virus; 1 μg, day 17
  Statistical Significance of Tail Lesions: < .01
Vaccinia IHD virus; 1 μg, day 21
  Statistical Significance of Tail Lesions: < .01
Vaccinia IHD virus; 10 [μg], day 6
  Statistical Significance of Tail Lesions: < .01
Vaccinia IHD virus; 10 [μg], day 7
  Statistical Significance of Tail Lesions: < .05
Vaccinia IHD virus; 10 [μg], day 8
  Statistical Significance of Tail Lesions: < .05
Vaccinia IHD virus; 10 [μg], day 10
  Statistical Significance of Tail Lesions: < .01
Vaccinia IHD virus; 10 [μg], day 11
  Statistical Significance of Tail Lesions: < .05
Vaccinia IHD virus; 10 [μg], day 12
  Statistical Significance of Tail Lesions: < .05
Vaccinia IHD virus; 10 [μg], day 14
  Statistical Significance of Tail Lesions: < .05
Vaccinia IHD virus; 10 [μg], day 17
  Statistical Significance of Tail Lesions: < .01
Vaccinia IHD virus; 10 [μg], day 21
  Statistical Significance of Tail Lesions: < .01
Vaccinia IHD virus; 100 [ng], day 5
  Statistical Significance of Tail Lesions: < .05
Vaccinia IHD virus; 100 [ng], day 6
  Statistical Significance of Tail Lesions: < .01
Vaccinia IHD virus; 100 [ng], day 7
  Statistical Significance of Tail Lesions: < .01
Vaccinia IHD virus; 100 [ng], day 8
  Statistical Significance of Tail Lesions: < .01
Vaccinia IHD virus; 100 [ng], day 10
  Statistical Significance of Tail Lesions: < .01
Vaccinia IHD virus; 100 [ng], day 11
  Statistical Significance of Tail Lesions: < .01
Vaccinia IHD virus; 100 [ng], day 12
  Statistical Significance of Tail Lesions: < .01
Vaccinia IHD virus; 100 [ng], day 14
  Statistical Significance of Tail Lesions: < .01
Vaccinia IHD virus; 100 [ng], day 17
  Statistical Significance of Tail Lesions: < .01
Vaccinia IHD virus; 100 [ng], day 21
  Statistical Significance of Tail Lesions: < .01
Vaccinia IHD virus; mouse, in vivo
  activity in words: most active of the compounds tested
Influenza PR 8 virus [1]
  No. animals surviving when 18/20 of controls are dead: 2
  Survivors: 2
Influenza PR 8 virus [2]; 0.5 Mg/ml in water, 24 h pre and 24 h post
  Survivors: 1
Influenza PR 8 virus [2]; 10 Mg/ml in water, 24 h pre and 24 h post
  Survivors: 2
Influenza PR 8 virus [2]; 24 h post-infection only, first of two printed columns
  Survivors: 0
Herpes virus [3]; mouse, in vivo
  Survivors: 2
Herpes virus [3]; total dose .000005 μg
  No. animals surviving after 6-9 days: 1
  No. animals surviving when 100% (or given fraction) of controls are dead: 0
  Survivors: 0
Herpes virus [3]; total dose .00005 μg
  No. animals surviving after 6-9 days: 8
  No. animals surviving when 100% (or given fraction) of controls are dead: 4
Herpes virus [3]; total dose .0005 μg
  No. animals surviving after 6-9 days: 6
  No. animals surviving when 100% (or given fraction) of controls are dead: 5
  Survivors: 4
Herpes virus [3]; total dose .005 μg
  No. animals surviving after 6-9 days: 4
Herpes virus [3]; total dose .05 μg
  No. animals surviving when 100% (or given fraction) of controls are dead: 0
  Survivors: 0
Influenza PR 8 virus [4]; total dose .000005 μg
  No. animals surviving after 6-10 days: 6
  Survivors: 0
Influenza PR 8 virus [4]; [7]
  No. animals surviving after 6-10 days: 4
  No. animals surviving when 100% (or given fraction) of controls are dead: 2
  Survivors: 1
Influenza PR 8 virus [4]; total dose .00005 μg
  Survivors: 4
Influenza PR 8 virus [4]; [8]
  No. animals surviving after 6-10 days: 5
  Survivors: 2
Influenza PR 8 virus [4]; [9]
  No. animals surviving after 6-10 days: 8 and 4
  No. animals surviving when 100% (or given fraction) of controls are dead: 4
Influenza PR 8 virus [4]; total dose .0005 μg
  No. animals surviving after 6-10 days: 2
  No. animals surviving when 100% (or given fraction) of controls are dead: 1
  Survivors: 1
Influenza PR 8 virus [4]; total dose .005 μg
  No. animals surviving after 6-10 days: 2
  No. animals surviving when 100% (or given fraction) of controls are dead: 1
  Survivors: 1
Influenza PR 8 virus [4]; total dose .005 μg, thiosemicarbazone
  Survivors: 0
Viral infections
  activity in words: one of the most active compounds
Herpes virus [5]; 2 μg
  Deaths on day 1: 1
  Deaths on day 2: 5
  Deaths on day 3: 3
  No. dying 5-22 day: 2
  No. hatched: 1
  No. living longer than controls: 3
  Total deaths, 4th day: 9
Herpes virus [5]; 20 μg
  Deaths on day 2: 5
  Deaths on day 3: 1
  Deaths on day 4: 2
  No. dying 5-22 day: 1
  No. living longer than controls: 4
  Total deaths, 4th day: 8
Herpes virus [5]; .00005 μg
  Deaths on day 1: 2
  Deaths on day 2: 4
  Deaths on day 3: 5
  No. dying 5-22 day: 0
  No. hatched: 1
  No. living longer than controls: 1
  Total deaths, 4th day: 11
Herpes virus [5]; .0005 μg
  Deaths on day 1: 1
  Deaths on day 2: 5
  Deaths on day 3: 3
  Deaths on day 4: 1
  No. dying 5-22 day: 0
  No. hatched: 1
  No. living longer than controls: 2
  Total deaths, 4th day: 10
Herpes virus [5]; .005 μg
  Deaths on day 1: 2
  Deaths on day 2: 4
  Deaths on day 3: 2
  Deaths on day 4: 3
  No. dying 5-22 day: 0
  No. living longer than controls: 1
  Total deaths, 4th day: 11
Herpes virus [5]; .05 μg
  Deaths on day 1: 2
  Deaths on day 2: 6
  Deaths on day 3: 3
  No. dying 5-22 day: 1
  No. living longer than controls: 1
  Total deaths, 4th day: 11
Herpes virus [5]; .5 μg
  Deaths on day 1: 1
  Deaths on day 2: 3
  Deaths on day 3: 6
  Deaths on day 4: 2
  No. dying 5-22 day: 0
  No. living longer than controls: 0
  Total deaths, 4th day: 12
Herpes virus [5]; all doses
  Total no. hatched: 5
  Total no. living longer than controls: 12
Influenza PR 8 virus [6]; total dose .000005 μg
  No. animals surviving after 6-8 days: 2
  Survivors: 0
Influenza PR 8 virus [6]; total dose .00005 μg
  Survivors: 0
Influenza PR 8 virus [6]; total dose .0005 μg
  No. animals surviving after 6-8 days: 1
  Survivors: 1
Influenza PR 8 virus [6]; total dose .005 μg
  Survivors: 0
